Results: US10828301B2, “2,4-pyrimidinediamine compounds and their uses” (Rigel Pharmaceuticals, Inc, priority 2002, dated 2020)

Experiments:
[1] = tested on: cultured human mast cells (CHMC); experiment: CHMC low cell density ionomycin activation: tryptase assay; type: cell-based; details: Low Density CHMC, ionomycin activation, tryptase readout, read-out: CHMC Ionomycin Tryptase
[2] = tested on: cultured human mast cells (CHMC); experiment: CHMC low cell density IgE activation: tryptase and LTC4 assays; type: cell-based; details: Low Density CHMC, anti-IgE activation, tryptase readout, read-out: CHMC anti-IgE Tryptase
In short: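 Cultured human mast cells at low density (1000-1500 per well) rested 1 h at 37° C, then stimulated with anti-IgE for 30 min at 37° C. Supernatant tryptase measured with fluorogenic substrate (30 min, room temperature); LTC4 quantified by ELISA on diluted supernatant.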

| Structure (SMILES) | IC50 ([1]; Homo sapiens, Mast cell) [µM] | IC50 ([2]; Homo sapiens, Mast cell) [nM] | IC50 [1] [µM] | IC50 [2] [nM] |
| --- | --- | --- | --- | --- |
| Oc1cccc(Nc2ncc(-c3ccc4c(c3)OCO4)c(Nc3cccc(O)c3)n2)c1 [Compound R925788, N2,N4-Bis(3-hydroxyphenyl)-5-(3,4-methylenedioxyphenyl)-2,4-pyrimidinediamine] | > 10 | 2400 | – | – |
| COC(=O)c1cc2cc(Nc3ncc(F)c(Nc4ccc5c(c4)OCCO5)n3)ccc2o1 [Compound R926690, N4-(3,4-Ethylenedioxyphenyl)-5-fluoro-N2-[2-(methoxycarbonyl)benzofuran-5-yl]-2,4-pyrimidinediamine] | > 10 | 146 | – | – |
| c1cc(Nc2ccc3c(c2)OCCO3)nc(Nc2ccc3c(c2)OCCO3)n1 [Compound R926243, N2,N4-Bis(3,4-ethylenedioxyphenyl)-2,4-pyrimidinediamine] | > 10 | 3100 | – | – |
| CC(C)c1cccc(Nc2ncc(F)c(Nc3cccc(C(C)C)c3)n2)c1 [Compound R940297, N2,N4-Bis(3-isopropylphenyl)-5-fluoro-2,4-pyrimidinediamine] | 10 | 3460 | – | – |
| COC(=O)c1cc2cc(Nc3ncc(F)c(Nc4ccc(C(C)(C)C)cc4)n3)ccc2o1 [Compound R926477, N4-(4-tert-Butylphenyl)-5-fluoro-N2-(2-methoxycarbonylbenzofuran-5-yl)-2,4-pyrimidinediamine] | > 10 | 270 | – | – |
| COC(=O)c1ccc(CNc2nc(Nc3ccc4c(c3)OCCO4)ncc2C#N)cc1 [Compound R925820, 5-Cyano-N2-(3,4-ethylenedioxyphenyl)-N4-(methoxycarbonylbenzyl)-2,4-pyrimidinediamine] | – | – | > 10 | > 10000 |
| CN1C=COc2ccc(Nc3nc(Nc4cccc(O)c4)ncc3F)cc21 [Compound R908710, 5-Fluoro-N2-(3-hydroxyphenyl)-N4-(N-methyl-1,4-benzoxazin-6-yl)-2,4-pyrimidinediamine] | 99 | 1840 | – | – |
| Brc1cnc(Nc2cccc(-c3ccccc3)c2)nc1Nc1cccc(-c2ccccc2)c1 [Compound R925803, N2,N4-Bis(3-phenylphenyl)-5-bromo-2,4-pyrimidinediamine] | > 10 | > 10000 | – | – |
| CCOc1ccc(Nc2ncc([N+](=O)[O-])c(Nc3ccc(OCC)cc3)n2)cc1 [Compound R940090, N2,N4-Bis-(4-ethoxypenyl)-5-nitro-2,4-pyrimidinediamine] | – | – | > 10 | > 10000 |
| CCCCOc1ccc(Nc2cc(Nc3ccc4c(c3)OCCO4)c(F)cn2)cc1 [Compound R920666, N2-(4-n-Butyloxyphenyl)-N4-(3,4-ethylenedioxyphenyl)-5-fluoro-2,4-pyridinediamine] | > 10 | 2530 | – | – |
| CC(C)Nc1cccc(Nc2ncc(F)c(Nc3cccc(NC(C)C)c3)n2)c1 [Compound R950166, N2,N4-Bis[3-(N-isopropyl)aminophenyl]-5-fluoro-2,4-pyrimidinediamine] | > 10 | 1890 | – | – |
| OCCOc1ccc(Nc2ncc(F)c(Nc3ccc4c(c3)N=CCO4)n2)cc1 [Compound R909248, N4-(1,4-Benzoxazin-6-yl)-5-fluoro-N2-[4-(2-hydroxyethyl)oxyphenyl]-2,4-pyrimidinediamine] | > 10 | 3580 | – | – |
| CCOC(=O)Cc1ccc(Nc2ncc(C#N)c(Nc3ccc(CC(=O)OCC)cc3)n2)cc1 [Compound R926662, N2,N4-Bis[4-(ethoxycarbonylmethyl)phenyl]-5-cyano-2,4-pyrimidinediamine] | > 10 | > 10000 | – | – |
| COc1ccc(Nc2ncc(F)c(Nc3ccc4c(c3)OCCO4)n2)c(C)c1 [Compound R926845, N4-(3,4-Ethylenedioxyphenyl)-5-fluoro-N2-(4-methoxy-2-methylphenyl)-2,4-pyrimidinediamine] | 7.81 | 2560 | – | – |
| Cc1c(O)ccc(Nc2ncc(F)c(Nc3ccc(O)c(C)c3C)n2)c1C [Compound R940217, N2,N4-Bis-(2,3-dimethyl-4-hydroxyphenyl)-5-fluoro-2,4-pyrimidinediamine] | > 10 | > 10000 | – | – |
| CCNC(=O)Nc1ccc(Nc2ncc(F)c(Nc3ccc(NC(=O)NCC)cc3)n2)cc1 [Compound R945040, N2,N4-Bis[4-(ethylaminocarbonylamino)phenyl]-5-fluoro-2,4-pyrimidinediamine] | > 10 | > 10000 | – | – |
| Cc1cnc(NCCc2ccc(O)cc2)nc1NCCc1ccc(O)cc1 [Compound R926397, N2,N4-Bis[2-(4-hydroxyphenyl)ethyl]-5-methyl-2,4-pyrimidinediamine] | > 10 | > 10000 | – | – |
| COC(=O)Cn1ncc2cc(Nc3ncc(F)c(Nc4ccc(OC(C)C)cc4)n3)ccc21 [Compound R935222, 5-Fluoro-N4-(4-isopropoxyphenyl)-N2-[1-(methoxycarbonyl)methyl-indazoline-5-yl]-2,4-pyrimidinediamine] | – | – | > 10 | 520 |
| CNC(=O)Cn1ncc2ccc(Nc3nc(Nc4ccc5c(c4)OCCO5)ncc3F)cc21 [Compound R935225, N2-(3,4-Ethylenedioxyphenyl)-5-fluoro-N4-[1-(N-methylaminocarbonyl)methyl-indazoline-6-yl]-2,4-pyrimidinediamine] | – | – | > 10 | 6500 |
| Oc1ccc(-c2cnc(Nc3ccc4c(c3)OCCO4)nc2Nc2ccc3c(c2)OCCO3)cc1 [Compound R925816, N2,N4-Bis(3,4-ethylenedioxyphenyl)-5-(4-hydroxyphenyl)-2,4-pyrimidinediamine] | > 10 | 6000 | – | – |
| CC(C)(C)c1ccc(Nc2nc(Nc3ccc4c(c3)CC(C(=O)O)O4)ncc2F)cc1 (stereo not drawn) [Compound R926720, N4-(4-tert-Butylphenyl)-5-fluoro-N2-[2,3-dihydro-2-(carboxy)benzofuran-5-yl]-2,4-pyrimidinediamine] | > 10 | 1560 | – | – |
| CCOC(=O)C(Nc1ncc(C#N)c(NC(C(=O)OCC)C(C)C)n1)C(C)C (stereo not drawn) [Compound R925814, N2,N4-Bis(1-ethoxycarbonyl-2-methylpropyl)-5-cyano-2,4-pyrimidinediamine] | > 10 | > 10000 | – | – |
| OCCOc1cccc(Nc2nc(Nc3cccc(O)c3)ncc2F)c1 [Compound R935170, 5-Fluoro-N4-[3-(2-hydroxyethoxy)phenyl]-N2-(3-hydroxyphenyl)-2,4-pyrimidinediamine] | > 10 | 673 | – | – |
| COc1ccc(-c2ccccc2)cc1Nc1ncc(Br)c(Nc2cc(-c3ccccc3)ccc2OC)n1 [Compound R925799, N2,N4-Bis(2-methoxy-5-phenylphenyl)-5-bromo-2,4-pyrimidinediamine] | > 10 | > 10000 | – | – |
| CNC(=O)C=Nc1cccc(Nc2ncc(F)c(Nc3cccc(O)c3)n2)c1 [Compound R950217, 5-Fluoro-N4-(3-hydroxyphenyl)-N2-[3-(N-methylamino)carbonylmethyleneaminophenyl]-2,4-pyrimidinediamine] | > 10 | 340 | – | – |
| CCCCOc1ccc(Nc2cc(Nc3ccc4c(c3)OCCO4)ncc2F)cc1 [Compound R920671, N4-(4-n-Butyloxyphenyl)-N2-(3,4-ethylenedioxyphenyl)-5-fluoro-2,4-pyridinediamine] | > 10 | > 10000 | – | – |
| COC(=O)c1cc2cc(Nc3ncc(F)c(Nc4cccc(N)c4)n3)ccc2o1 [Compound R950162, N4-(3-Aminophenyl)-5-fluoro-N2-(2-methoxycarbonylbenzofurane-5-yl)-2,4-pyrimidinediamine] | > 10 | 434 | – | – |
